{
  "source": "patent US7723064B2",
  "about": "“Methods for monitoring patients for efficacy of an antiplatelet therapy regimen” (Siemens Healthcare Diagnostics Inc., priority 2004, dated 2010)",
  "key": {"[1]": {"tested_on": "platelets (platelet activation)", "test": "Mean platelet component concentration (MPC, platelet density) on the ADVIA 120 Hematology System in whole blood of patients before and after anti-platelet therapy and PTCA", "assay_type": "in vivo, human", "settings": "for mean MPC level: Clopidogrel patients n=29, baseline 27.8±0.4 g/dL; for mean MPC level / MPC level: mean±SE; for MPC level: abciximab patients n=15, baseline 28.0±0.3 g/dL", "description": "(§1) Patients. A total of 44 patients who underwent elective percutaneous coronary angioplasty and stenting were evaluated. The study was approved by the institutional committee on human research. Patients were enrolled in the study after informed consent had been obtained. Their baseline variables including age, gender, smoking history, risk factors, antecedents and medication were documented. These patients received either a loading dose of Clopidogrel (300 mg) before the beginning of the PTCA procedure followed by 75 mg daily for 1 month or intravenously a 0.25 mg/kg, bolus of Abciximab before the beginning of the PTCA procedure followed by a 0.125 μg/kg/mn infusion for 12 h.\n(§2) Blood collection. Blood was drawn with a 21-gauge needle into EDTA (5 mM) tubes, mixed immediately with the anticoagulant and avoiding frothing during the mixing procedure. The first 1-2 ml of blood were discarded to avoid the effects of traces of thrombin generated during venipuncture. Serum was collected for CRP measurements. Whole blood specimens for measurement of the ADVIA® 120 Hematology System platelet parameters and flow cytometry analysis were taken prior to baseline, 2 hours, and 24 hours after administration of anti-platelet therapy and PTCA. For platelet activation measurements, all specimens were processed within 1 h after blood collection.\nBayer ADVIA 120 automated hematology system platelet density measurement. The two-dimensional platelet method is based on the analysis of platelets in whole blood by flow cytometry using the ADVIA 120. The system was standardized and calibrated as per the manufacturer's instructions. The ADVIA 120 Hematology System was quality-controlled using TESTpoint Hematology control reagents (Bayer HealthCare, LLC, Tarrytown, N.Y.). The whole blood specimens anticoagulated with EDTA were processed within 1 h after specimen collection. […] See Macey M. G. et al., Cytometry (1999) 38:250-255; Chapman E. S. et al., Thromb. Haemost. (2003) 89:1004-1015; Ahnadi C. E. et al., Thromb. Haemost (2003) 90:940-948. In this study, MPC determinations were acquired as a measure of platelet activation at baseline, 2 hours, and 24 hours after anti-platelet drug therapy.\n(§3) Patients. A total of 44 patients who underwent elective percutaneous coronary angioplasty and stenting were evaluated Patients were enrolled in the study after informed consent had been obtained. Their baseline variables including age, gender, smoking history and medication were documented. The treatments were assigned based on the angiographic characteristics. Patients with presence of thrombus and high risk vessel disease were assigned to Abciximab. Two thirds (n=29) of patients received a loading dose of Clopidogrel (300 mg) before the beginning of the PTCA procedure followed by 75 mg daily for 1 month. One third (n=15) of patients received a 0.25 mg/kg bolus of Abciximab intravenously before the beginning of the PTCA procedure followed by a 0.125 μg/kg/min infusion for 12 h. These patients also received Clopidogrel a designated number of hours after PTCA.\nCollection of blood. Blood was drawn with a 21-gauge needle into EDTA (5 mM) tubes, mixed immediately with the anticoagulant, and avoiding frothing during the mixing procedure. The first 1-2 ml of blood were discarded to avoid the effects and traces of thrombin generated during venipuncture. Universal precautions were taken at all times during phlebotomy. Whole blood specimens for measurement of the ADVIA 120 System platelet parameters and CD62P-PE flow cytometry analysis were taken prior to baseline, 2 h, 5 h, and 24 h after administration of a loading charge of Clopidogrel and percutaneous transluminal coronary angioplasty (PTCA), and prior to, 10 min, 2 h, and 24 h after administration of the Abciximab bolus and PTCA. All specimens were processed within 1 h after blood collection.\nBayer ADVIA 120 Automated Hematology System platelet density measurement. […]"}, "[2]": {"tested_on": "platelet activation markers CD62, CD63, and PAC-1", "settings": "after stimulation with ADP or thrombin; healthy subjects and patients after myocardial infarction; cited from earlier work"}, "[3]": {"tested_on": "CD62P (P-selectin) expression on platelets", "test": "Platelet CD62P (P-selectin) expression by fluorescence flow cytometry in whole blood of patients before and after anti-platelet therapy and PTCA", "assay_type": "in vivo, human", "settings": "for mean CD62P expression (percent positive events): Clopidogrel patients n=29, 300 mg loading dose and PTCA, baseline 9.5±3.3%; for mean CD62P expression (percent positive events) / CD62P percent positive expression / CD62P expression (percent positive events): mean±SE; for CD62P percent positive expression: patients with high baseline platelet activation, baseline 23.4±6.6%, p<0.01; for CD62P expression (percent positive events): abciximab patients n=15, 0.25 mg/kg bolus plus infusion and PTCA, baseline 9.3±4.0%", "description": "as §1, §2\nFluorescence flow cytometry analysis. Whole blood samples were fixed with methanol-free paraformaldehyde (final concentration 0.5%). Fixed blood (5 μl) was incubated at room temperature for 15 min in the dark with monoclonal antibody CD61a-FITC. (10 μl) to identify the platelets and CD62P-PE (10 μl) to measure the expression of P-selectin. Platelets labeled with FITC or PE-conjugated isotype control antibody were used as control for nonspecific staining.\nSamples were diluted to 1 ml with PBS. FACScan calibration and compensation were performed as recommended by the manufacturer. Five thousand (5,000) CD61a positive events were acquired on the FACScan flow cytometer (Becton Dickinson, Franklin Lakes, N.J.) equipped with Lysis II software. Data analysis was performed using a threshold based on the FITC-fluorescence correlating to the platelet specific binding of CD61a-FITC antibodies. A gate was drawn around the fluorescent platelet population. The CD61a-FITC labeled platelets that were also positive for PE-conjugated activation marker antibody (CD62P) was quantitated and presented as percentage of positive events.\nas §3\nCollection of blood. Blood was drawn with a 21-gauge needle into EDTA (5 mM) tubes, mixed immediately with the anticoagulant, and avoiding frothing during the mixing procedure. The first 1-2 ml of blood were discarded to avoid the effects and traces of thrombin generated during venipuncture. Universal precautions were taken at all times during phlebotomy. […]"}},
  "data": [
    {"molecule": "COC(=O)[C@H](c1ccccc1Cl)N1CCc2sccc2C1", "note": "[Clopidogrel]", "values": [
      {"measurement": "mean MPC level", "setting": "[1]; 2 h", "value": "28.4 ± 0.3", "unit": "g/dL"},
      {"measurement": "mean MPC level", "setting": "[1]; 5 h", "value": "28.9 ± 0.2", "unit": "g/dL"},
      {"measurement": "mean MPC level", "setting": "[1]; 24 h", "value": "28.7 ± 0.2", "unit": "g/dL"},
      {"measurement": "MPC value", "setting": "[1]; patients with high baseline platelet activation, 2 h, baseline 25.7±0.8 g/dL, p<0.01", "value": "28.0 ± 0.5", "unit": "g/dL"},
      {"measurement": "MPC value", "setting": "[1]; patients with high baseline platelet activation, 5 h, baseline 25.7±0.8 g/dL, p<0.01", "value": "28.8 ± 0.3", "unit": "g/dL"},
      {"measurement": "MPC value", "setting": "[1]; patients with high baseline platelet activation, 24 h, baseline 25.7±0.8 g/dL, p<0.01", "value": "28.4 ± 0.3", "unit": "g/dL"},
      {"measurement": "expression of platelet activation markers CD62, CD63, and PAC-1", "setting": "[2]", "value": "suppresses expression"},
      {"measurement": "mean CD62P expression (percent positive events)", "setting": "[3]; 2 h", "value": "3.1±1.8", "unit": "%"},
      {"measurement": "mean CD62P expression (percent positive events)", "setting": "[3]; 5 h", "value": "1.2±0.7", "unit": "%"},
      {"measurement": "mean CD62P expression (percent positive events)", "setting": "[3]; 24 h", "value": "1.8±1.1", "unit": "%"},
      {"measurement": "platelet activation as determined by both CD62P decrease and increasing MPC", "setting": "[3]; group of patients with the greatest baseline platelet activation", "value": "significant reduction"},
      {"measurement": "CD62P percent positive expression", "setting": "[3]; 2 h", "value": "2.0±1.0", "unit": "%"},
      {"measurement": "CD62P percent positive expression", "setting": "[3]; 5 h", "value": "0.3±0.1", "unit": "%"},
      {"measurement": "CD62P percent positive expression", "setting": "[3]; 24 h", "value": "1.5±0.5", "unit": "%"}
    ]},
    {"molecule": "CC(=O)Oc1ccccc1C(=O)O", "note": "[aspirin]", "values": [
      {"measurement": "platelet inhibition effect", "setting": "[3]; patients on aspirin therapy before admission, by the classic (CD62P) or new (MPC) platelet activation measurements", "value": "not demonstrated"}
    ]},
    {"molecule": "Abciximab (antibody, chains of the INN, looked up, V domains shown, Fab, the monoclonal antibody, abciximab) VH: EVQLQQSGTVLARPGASVKMSCEASGYTFTNYWMHWVKQRPGQGLEWIGAIYPGNSDTSYIQKFKGKAKLTAVTSTTSVYMELSSLTNEDSAVYYCTLYDGYYVFAYWGQGTLVTVSA VL: EIVLTQSPVTLSVTPGDSVSLSCRASRDISNNLHWFQQTSHESPRLLIKYASQSMSGIPSRFSGSGSGTDFTLSINSVETEDFGMYFCQQTNSWPYTFGGGTKLEIK", "values": [
      {"measurement": "MPC level", "setting": "[1]; 10 min", "value": "27.9 ± 0.3", "unit": "g/dL"},
      {"measurement": "MPC level", "setting": "[1]; 2 h", "value": "28.0 ± 0.4", "unit": "g/dL"},
      {"measurement": "MPC level", "setting": "[1]; 24 h", "value": "28.4 ± 0.2", "unit": "g/dL"},
      {"measurement": "MPC value", "setting": "[1]; one patient, 2 hours after Abciximab and angioplasty, baseline 28.3 g/dL, complications of pacemaker installation", "value": 22.8, "unit": "g/dL"},
      {"measurement": "CD62P expression (percent positive events)", "setting": "[3]; 2 h", "value": "7.9±5.4", "unit": "%"},
      {"measurement": "CD62P expression (percent positive events)", "setting": "[3]; 24 h", "value": "0.7±0.3", "unit": "%"},
      {"measurement": "CD62P-PE value", "setting": "[3]; one patient, 2 hours after Abciximab and angioplasty, baseline 4.2%, complications of pacemaker installation", "value": 75, "unit": "%"}
    ]}
  ]
}
